38 molecules from US6642227B2, “Inhibitors of c-Jun N-terminal kinases (JNK) and other protein kinases” (Vertex Pharmaceuticals Incorporated, priority 2001, dated 2003) can be followed below.

Structures are written as SMILES.

What is called Ki is a measure of affinity in units of concentration, obtained from inhibition or displacement.

The target of the assay is human Lck kinase (UniProt P06239). Nature of the assay: Lck inhibition assay (A: radioactivity-based or B: spectrophotometric coupled-enzyme assay). It counts as biochemical. The note with it: read-out: Lck Activity (Ki rating). Here is the method:
The compounds were evaluated as inhibitors of human Lck kinase using either a radioactivity-based assay or spectrophotometric assay.
The compounds were assayed as inhibitors of full length bovine thymus Lck kinase (from Upstate Biotechnology, cat. no. 14-106) expressed and purified from baculo viral cells. Lck kinase activity was monitored by following the incorporation of ^33p from ATP into the tyrosine of a random poly Glu-Tyr polymer substrate of composition, Glu:Tyr=4:1 (Sigma, cat. no. P-0275). The following were the final concentrations of the assay components: 0.025 M HEPES, pH 7.6, 10 mM MgCl2, 2 mM DTT, 0.25 mg/ml BSA, 10 μM ATP (1-2 μCi ^33P-ATP per reaction), 5 mg/ml poly Glu-Tyr, and 1-2 units of recombinant human […] kinase. In a typical assay, all the reaction components with the exception of ATP were pre-mixed and aliquoted into assay plate wells. Inhibitors dissolved in DMSO were added to the wells to give a final DMSO concentration of 2.5%. The assay plate was incubated at 30 C. for 10 min before initiating the reaction with ^33P-ATP. After 20 min of reaction, the reactions were quenched with 150 μl of 10% trichloroacetic acid (TCA) containing 20 mM Na3PO4. The quenched samples were then transferred to a 96-well filter plate (Whatman, UNI-Filter GF/F Glass Fiber Filter, cat no. 7700-3310) installed on a filter plate vacuum manifold. Filter plates were washed four times with 10% TCA containing 20 mM Na3PO4 and then 4 times with methanol. 200 μl of scintillation fluid was then added to each well. The plates were sealed and the amount of radioactivity associated with the filters was quantified on a TopCount scintillation counter. The radioactivity incorporated was plotted as a function of the inhibitor concentration. The data was fitted to a competitive inhibition kinetics model to get the Ki for the compound.
The ADP produced from ATP by the human recombinant Lck kinase-catalyzed phosphorylation of poly Glu-Tyr substrate was quanitified using a coupled enzyme assay (Fox et al (1998) Protein Sci 7, 2249). In this assay one molecule of NADH is oxidised to NAD for every molecule of ADP produced in the kinase reaction. The disappearance of NADH can be conveniently followed at 340 nm.
The following were the final concentrations of the assay components: 0.025 M HEPES, pH 7.6, 10 mM MgCl2, 2 mM DTT, 5 mg/ml poly Glu-Tyr, and 50 nM of recombinant human Lck kinase. Final concentrations of the components of the coupled enzyme system were 2.5 mM phosphoenolpyruvate, 200 μM NADH, 30 μg/ml pyruvate kinase and 10 μg/ml lactate dehydrogenase.
In a typical assay, all the reaction components with the exception of ATP were pre-mixed and aliquoted into assay plate wells. Inhibitors dissolved in DMSO were added to the wells to give a final DMSO concentration of 2.5%. The assay plate was incubated at 30° C. for 10 min before initiating the reaction with 150 μM ATP. The absorbance change at 340 nm with time, the rate of the reaction, was monitored on a molecular devices plate reader. The data of rate as a function of the inhibitor concentration was fitted to competitive inhibition kinetics model to get the Ki for the compound.
As to `CSc1sc(-c2nc(Nc3cccc(N)c3)ncc2C)c(C2CCCCC2)c1C#N` [Compound V-8, 5-[2-(3-Aminophenylamino)-5-methyl-pyrimidin-4-yl]-4-cyclohexyl-2-methylsulfanyl-thiophene-3-carbonitrile], the Ki was < 100 nM. For `CSc1sc(-c2nc(Nc3cccc(O)c3)ncc2C)c(-c2cccnc2)c1C#N` [Compound V-24], the inhibition constant (Ki) was < 100 nM. The same measure for `CSc1sc(-c2ccnc(Nc3cccc(S(N)(=O)=O)c3)n2)c(-c2ccccc2)c1C#N` [IIa-38, 3-[4-(4-cyano-5-methylsulfanyl-3-phenyl-thiophen-2-yl)-pyrimidin-2-ylamino]-benzenesulfonamide]: < 100 nM; for `N#Cc1c(SCc2ccc(O)cc2)sc(-c2ccnc(Nc3ccccc3)n2)c1-c1ccccc1` [IIa-39, 2-(4-Hydroxy-benzylsulfanyl)-4-phenyl-5-(2-phenylamino-pyrimidin-4-yl)-thiophene-3-carbonitrile]: < 100 nM; for `CSc1sc(-c2ccnc(Nc3cccc(O)c3)n2)c(-c2ccccc2)c1C#N` [IIa-40, 5-[2-(3-Hydroxy-phenylamino)-pyrimidin-4-yl]-2-methylsulfanyl-4-phenyl-thiophene-3-carbonitrile]: < 100 nM. As for `CSc1sc(-c2ccnc(Nc3cccc(O)c3)n2)c(-c2cccc(-c3ccncc3)c2)c1C#N` [IIa-105, 5-[2-(3-Hydroxy-phenylamino)-pyrimidin-4-yl]-2-methylsulfanyl-4-(3-pyridin-4-yl-phenyl)-thiophene-3-carbonitrile], the inhibition constant (Ki) was < 100 nM. The same measure for `CSc1sc(-c2ccnc(Nc3cccc(OCCCN(C)CCO)c3)n2)c(C2CCCCC2)c1C#N` [VI-1]: < 100 nM. Regarding `COCCNCCCOc1cccc(Nc2nccc(-c3sc(SC)c(C#N)c3C3CCCCC3)n2)c1` [VI-2], the inhibition constant (Ki) was < 100 nM. Turning to `CSc1sc(-c2ccnc(Nc3cccc(OCCCNCCO)c3)n2)c(C2CCCCC2)c1C#N` [VI-3], the Ki was < 100 nM. For `CSc1sc(-c2ccnc(Nc3cccc(OCCCN4CCC(O)CC4)c3)n2)c(C2CCCCC2)c1C#N` [VI-4] the value was < 100 nM. Turning to `CSc1sc(-c2ccnc(Nc3cccc(OCCCN4CCC(CO)CC4)c3)n2)c(C2CCCCC2)c1C#N` [VI-5], the inhibitory constant (Ki) was < 100 nM. As to `CSc1sc(-c2ccnc(Nc3cccc(OCCCN4CCC[C@H]4CO)c3)n2)c(C2CCCCC2)c1C#N` [VI-6], the Ki is < 100 nM. As to `CSc1sc(-c2ccnc(Nc3cccc(OCCCN4CCN(CCO)CC4)c3)n2)c(C2CCCCC2)c1C#N` [VI-7], the Ki is < 100 nM. Consider `CSc1sc(-c2ccnc(Nc3cccc(OCCCN4CCCC(O)C4)c3)n2)c(C2CCCCC2)c1C#N` (centres unmarked) [VI-8], for which the Ki is < 100 nM. Take `CCN1CCN(CCCOc2cccc(Nc3nccc(-c4sc(SC)c(C#N)c4C4CCCCC4)n3)c2)CC1` [VI-9]: the inhibition constant Ki is < 100 nM. The same measure for `CSc1sc(-c2ccnc(Nc3cccc(OCCCN4CCNCC4)c3)n2)c(C2CCCCC2)c1C#N` [VI-10]: < 100 nM. For `CSc1sc(-c2ccnc(Nc3cccc(OCCCN4CCN(Cc5ccncc5)CC4)c3)n2)c(C2CCCCC2)c1C#N` [VI-11], the Ki is < 100 nM. As for `CSc1sc(-c2ccnc(Nc3cccc(OCCCN4CCCC4)c3)n2)c(C2CCCCC2)c1C#N` [VI-12], the inhibition constant Ki is < 100 nM.

As to `CSc1sc(-c2ccnc(Nc3cccc(OCCCn4ccnc4)c3)n2)c(C2CCCCC2)c1C#N` [VI-13], the Ki is < 100 nM. As to `CSc1sc(-c2ccnc(Nc3cccc(OCCCn4cnc(C)c4)c3)n2)c(C2CCCCC2)c1C#N` [VI-14], the inhibitory constant (Ki) is < 100 nM. Consider `CSc1sc(-c2ccnc(Nc3cccc(OCCCN4CCOCC4)c3)n2)c(C2CCCCC2)c1C#N` [VI-15], for which the Ki was < 100 nM. For `CSc1sc(-c2ccnc(Nc3cccc(OCCCN4CCSCC4)c3)n2)c(C2CCCCC2)c1C#N` [VI-16] the value was < 100 nM.

As to `CSc1sc(-c2ccnc(Nc3cccc(OCCCN4CCSC4)c3)n2)c(C2CCCCC2)c1C#N` [VI-17], the inhibitory constant (Ki) was < 100 nM.

With `CSc1sc(-c2ccnc(Nc3cccc(OCCCO)c3)n2)c(-c2cccnc2)c1C#N` [VI-121], the Ki was 100 to 1000 nM. With `CSc1sc(-c2ccnc(Nc3cccc(OCCCN4CCCC4)c3)n2)c(-c2cccnc2)c1C#N` [VI-122], the Ki was < 100 nM. For `CSc1sc(-c2ccnc(Nc3cccc(OCCCN4CCNCC4)c3)n2)c(-c2cccnc2)c1C#N` [VI-123] the value was 100 to 1000 nM.

Take `CSc1sc(-c2ccnc(Nc3cccc(OCCCO)c3)n2)c(-c2cccc(OCc3ccccc3)c2)c1C#N` [VI-124]: the Ki lay in the range of 100 to 1000 nM. Take `CSc1sc(-c2ccnc(Nc3cccc(OCCCN4CCNCC4)c3)n2)c(-c2cccc(OCc3ccccc3)c2)c1C#N` [VI-125]: the inhibition constant Ki is 100 to 1000 nM. Consider `CSc1sc(-c2ccnc(Nc3cccc(OCCCN4CCN(CCO)CC4)c3)n2)c(-c2cccc(OCc3ccccc3)c2)c1C#N` [VI-126], for which the inhibition constant (Ki) was 100 to 1000 nM.

Consider `CSc1sc(-c2ccnc(Nc3cccc(OCCCN4CCC(CO)CC4)c3)n2)c(-c2cccc(OCc3ccccc3)c2)c1C#N` [VI-127], for which the Ki was in the range of 100 to 1000 nM. Take `CSc1sc(-c2ccnc(Nc3cccc(OCCCN4CCN(CCO)CC4)c3)n2)c(-c2cccc(O)c2)c1C#N` [VI-128]: the Ki is < 100 nM. Take `CSc1sc(-c2ccnc(Nc3cccc(OCCCN4CCC(CO)CC4)c3)n2)c(-c2cccc(O)c2)c1C#N` [VI-129]: the Ki is < 100 nM. Consider `CSc1sc(-c2ccnc(Nc3cccc(NC(=O)CCN4CCCCC4)c3)n2)c(-c2cccnc2)c1C#N` [VI-131], for which the inhibitory constant (Ki) is < 100 nM. On to `CSc1sc(-c2ccnc(Nc3cccc(NC(=O)Cc4ccccn4)c3)n2)c(-c2cccnc2)c1C#N` [VI-136], for which the Ki is < 100 nM. Regarding `CSc1sc(-c2ccnc(Nc3cccc(NC(=O)Cc4csc(N)n4)c3)n2)c(-c2cccnc2)c1C#N` [VI-137], the Ki is < 100 nM.

For the molecule `CSc1sc(-c2ccnc(Nc3cccc(NC(=O)CC4CC4)c3)n2)c(-c2cccnc2)c1C#N` [VI-138, 3-cyano-4-(3-pyridyl)-5-[2-(3-N-cyclopropylacetamido)-aminophenylamino]-pyrimidin-4-yl-2-thiomethyl thiophene], the Ki is < 100 nM.

With `CSc1sc(-c2ccnc(Nc3cccc(NC(=O)CCC4NC(=O)CNC4=O)c3)n2)c(-c2cccnc2)c1C#N` (centres unmarked) [VI-139], the Ki is < 100 nM.

In the case of `CCN(CC)CCC(=O)Nc1cccc(Nc2nccc(-c3sc(SC)c(C#N)c3-c3cccnc3)n2)c1` [VI-140], the Ki was < 100 nM.
